Calls of active or inactive are those of the source.
What was measured:
[1] = HIV-1 AD8 envelope cell-cell fusion blockers – cherry-pick, dose response (AID 652062); format: functional, cell-based;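 further: luciferase signal from cell-cell fusion driven by HIV-1 clade B AD8 Env; potency is for inhibitors of fusion seen as a drop in luminescence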
[2] = blockers of HIV-1 envelope-mediated cell-cell fusion – cherry-pick, dose response (AID 652057); format: functional, cell-based
[3] = HEK-293T viability loss after treatment – luminescence, T-cell screen hits, cytotoxicity control for TCR NF-kB inhibitor project, dose response (AID 489026); format: functional, cell-based;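 further: cells exposed to compound about 14 hours before the viability readout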
[4] = Luminescence-based counterscreen assay for KLF5 inhibitors: dose response cell-based high throughput screening assay to identify cytotoxic compounds using the IEC-6 intestinal epithelial cell line. [Related pubchem assays: 1700 (Primary screen.), 1834 (Confirmation screen.), 1858 (Summary AID.), 1905 (Counterscreen.)]; format: functional
[5] = target: Cyclin-dependent kinase 5/CDK5 activator 1 (Homo sapiens, UniProt Q00535); experiment: blockade of human CDK5 activity – biochemical, cherry-picked samples, set 2, dose response (AID 504545)
[6] = ADP-Glo luciferase signal interference – biochemical, luminescence, cherry-picked samples, set 2, artefact control for CDK5 inhibitor project, dose response (AID 504546); format: functional, cell-based
[7] = off-target signal loss in HeLa-CEM21 co-culture – HeLa F-luc CTL cells, cherry-picked, counter-screen for HIV-1 Env fusion inhibitor project, dose response (AID 652040); format: functional, cell-based;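 further: potency for signal decrease marking cytotoxic or nonspecific inhibition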
[8] = viability loss in CEM21 cells – cell-based, CellTiter-Glo luminescence, cherry-picked, cytotoxicity control for viral fusion inhibitor project, dose response (AID 652042); format: functional;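 further: potency for signal decrease meaning cytotoxicity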
[9] = Luminescence Cell-Based Dose Confirmation HTS to Identify Inhibitors of Platelet Dense Granule Release. [Related pubchem assays: 1663 (Primary HTS), 1678 (Summary of Project)]; format: functional
[10] = blockers of HIV-1 ZM109 envelope-driven cell-cell fusion – HeLa effector, CEM target cells, luciferase, cherry-pick, dose response (AID 652058); format: functional, cell-based;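 further: luciferase signal from HIV-1 Env mediated cell-cell fusion of effector and target cells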
[11] = target: Luciferin 4-monooxygenase (Photinus pyralis, UniProt P08659); experiment: inhibition of purified Photinus pyralis luciferase – biochemical, luminescence, dose response (AID 1891)
[12] = target: X-box-binding protein 1 (Homo sapiens, UniProt P17861); format: functional, Cricetulus griseus;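 further: confirmatory dose-response counter-screen serving a CHOP assay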
[13] = tested on: H4; experiment: Luminescence Cell-Based Dose Response HTS to Identify Activators of 5'UTR Stem-Loop Driven Prion Protein mRNA Translation in H4 Neuroglioblastoma Cells. [Related pubchem assays: 1829 (Project Summary), 1814 (Primary HTS)]; format: functional; conditions: Homo sapiens
[14] = Luminescence Cell-Based Dose Response HTS to Identify Activators of 5'UTR Stem-Loop Driven Prion Protein mRNA Translation in H4-C Neuroglioblastoma Cells. [Related pubchem assays: 1829 (Project Summary), 1814 (Primary HTS)]; format: functional
[15] = Luminescence Cell-Based Dose Response HTS to Identify Activators of Luciferase Translation or Activity in H4 […] Cells. [Related pubchem assays: 1829 (Project Summary), 1814 (Primary HTS)]; format: functional
[16] = Luminescence Cell-Based Dose Response HTS to Identify Activators of Luciferase Translation or Activity in H4-C Neuroglioblastoma Cells. [Related pubchem assays: 1829 (Project Summary), 1814 (Primary HTS)]; format: functional
[17] = Luminescence Cell-Based Dose Confirmation HTS to Identify Activators of 5'UTR Stem-Loop Driven Alpha-Synuclein mRNA Translation in H4 Neuroglioblastoma Cells. [Related pubchem assays: 1829 (Project Summary), 1814 (Primary HTS)]; format: functional
[18] = Luminescence Cell-Based Dose Retest to Confirm Activators of 5'UTR Stem-Loop Driven Alpha-Synuclein mRNA Translation in H4 Neuroglioblastoma Cells. [Related pubchem assays (depositor defined):AID1813, AID1829]; format: functional
[19] = target: T1, Voltage-dependent T-type calcium channel subunit alpha-1H (Homo sapiens, UniProt O95180); experiment: Inhibitors of T-Type Calcium Channels. [Related pubchem assays (depositor defined):AID449739, AID463087, AID489005, AID493041, AID504579, AID504584, AID504619, AID504628]; format: functional
[20] = target: T1, Voltage-dependent T-type calcium channel subunit alpha-1H; format: functional
[21] = target: T2, Hexokinase HKDC1 (Homo sapiens, UniProt Q2TB90); experiment: inhibition of HKDC1 glucose phosphorylation – biochemical, W721R variant, dose response (AID 504729); format: functional
T2 sequence (Q2TB90 whole entry): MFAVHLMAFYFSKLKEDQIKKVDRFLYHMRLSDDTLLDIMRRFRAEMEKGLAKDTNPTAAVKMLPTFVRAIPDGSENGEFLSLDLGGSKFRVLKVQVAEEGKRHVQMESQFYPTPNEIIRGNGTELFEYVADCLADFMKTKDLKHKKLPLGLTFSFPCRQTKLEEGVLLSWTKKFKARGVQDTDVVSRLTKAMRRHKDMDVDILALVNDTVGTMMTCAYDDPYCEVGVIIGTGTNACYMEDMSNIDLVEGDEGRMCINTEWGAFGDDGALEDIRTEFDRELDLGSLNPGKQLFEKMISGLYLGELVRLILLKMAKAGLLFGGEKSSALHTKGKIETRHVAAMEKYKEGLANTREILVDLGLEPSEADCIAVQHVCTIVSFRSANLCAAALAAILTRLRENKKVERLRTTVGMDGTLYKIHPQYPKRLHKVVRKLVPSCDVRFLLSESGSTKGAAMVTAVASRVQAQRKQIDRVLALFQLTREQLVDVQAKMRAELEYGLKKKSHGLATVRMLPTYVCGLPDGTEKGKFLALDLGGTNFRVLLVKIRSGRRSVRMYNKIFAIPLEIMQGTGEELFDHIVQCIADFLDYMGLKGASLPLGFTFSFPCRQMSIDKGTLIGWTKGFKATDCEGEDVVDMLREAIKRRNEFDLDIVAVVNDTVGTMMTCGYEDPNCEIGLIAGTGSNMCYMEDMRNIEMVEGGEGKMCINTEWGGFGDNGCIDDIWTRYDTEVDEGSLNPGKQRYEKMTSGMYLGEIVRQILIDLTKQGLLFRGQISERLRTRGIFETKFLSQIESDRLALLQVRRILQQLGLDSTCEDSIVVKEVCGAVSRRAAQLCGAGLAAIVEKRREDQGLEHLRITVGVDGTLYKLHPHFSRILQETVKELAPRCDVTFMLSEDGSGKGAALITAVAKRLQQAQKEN

[22] = target: NACHT, LRR and PYD domains-containing protein 3 (Homo sapiens, UniProt Q96P20); experiment: NALP3 inhibitors in yeast, dose response, luminescent (AID 488799); format: functional
[23] = target: Melanin-concentrating hormone receptor 1 (Homo sapiens, UniProt Q99705); experiment: Late-stage fluorescence-based counterscreen for antagonists of the G-protein coupled receptor 7 (GPR7): cell-based dose response assay to identify antagonists of the melanin-concentrating hormone receptor 1 (MCHR1). [Related pubchem assays (depositor defined):AID1861, AID1880, AID1952, AID2148, AID2251, AID2257, AID485339]; format: functional;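 further: stimulated with 30 nM MCH peptide agonist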
[24] = target: T3, Neuropeptides B/W receptor type 1 (Homo sapiens, UniProt P48145); experiment: human NPBW1 receptor blockade, IC50 – cell-based, fluorescence, dose response, late-stage follow-up (AID 463251); format: functional
T3 sequence (P48145 whole entry): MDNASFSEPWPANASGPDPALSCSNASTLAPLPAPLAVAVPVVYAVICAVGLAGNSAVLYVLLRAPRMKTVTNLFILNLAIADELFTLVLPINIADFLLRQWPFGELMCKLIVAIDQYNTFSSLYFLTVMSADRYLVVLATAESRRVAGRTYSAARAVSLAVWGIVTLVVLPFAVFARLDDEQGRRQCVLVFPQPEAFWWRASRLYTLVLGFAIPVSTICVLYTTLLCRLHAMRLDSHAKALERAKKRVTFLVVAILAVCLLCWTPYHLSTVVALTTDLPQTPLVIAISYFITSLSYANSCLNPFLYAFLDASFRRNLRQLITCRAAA

[25] = tested on: CHO-K1; experiment: (§1) Counterscreen for antagonists of the orexin 1 receptor (OX1R; HCRTR1): Homogeneous time resolved fluorescence (HTRF)-based cell-based dose response assay to identify antagonists of the parental CHO-K1 cell line. [Related pubchem assays (depositor defined):AID434989, AID435008, AID463079, AID485270, AID492963, AID492964, AID492965, AID493232, AID504699, AID504701]; format: functional; conditions: Cricetulus griseus
[26] = as §1, with “Fluorescence-based” for “Homogeneous time resolved fluorescence (HTRF)-based”, “cell-based high throughput” for “cell-based”, “CHO” for “CHO-K1”; format: functional
[27] = target: T4, Scavenger receptor class B member 1 (Mus musculus, UniProt Q61009); experiment: mouse SR-BI DiI-HDL uptake blockers – ldlA[mSR-BI] cells, fluorescence, cherry pick, dose response (AID 493194); format: functional, cell-based;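 further: cellular uptake of fluorescent DiI-labeled HDL measured as cell fluorescence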
T4 sequence (Q61009 whole entry): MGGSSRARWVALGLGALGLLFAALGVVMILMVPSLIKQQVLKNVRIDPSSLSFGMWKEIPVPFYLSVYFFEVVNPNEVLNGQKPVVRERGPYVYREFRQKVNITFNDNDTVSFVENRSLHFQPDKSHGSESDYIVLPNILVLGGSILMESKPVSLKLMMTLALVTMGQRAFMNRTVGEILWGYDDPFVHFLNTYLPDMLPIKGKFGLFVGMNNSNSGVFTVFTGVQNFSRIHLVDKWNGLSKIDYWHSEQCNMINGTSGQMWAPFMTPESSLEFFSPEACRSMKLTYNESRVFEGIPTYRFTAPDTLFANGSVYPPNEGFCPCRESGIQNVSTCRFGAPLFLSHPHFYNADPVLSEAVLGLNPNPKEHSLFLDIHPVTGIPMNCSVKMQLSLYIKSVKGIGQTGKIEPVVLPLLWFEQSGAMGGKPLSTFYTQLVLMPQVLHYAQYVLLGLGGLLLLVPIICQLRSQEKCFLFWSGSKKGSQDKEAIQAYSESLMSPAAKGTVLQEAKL

[28] = target: T5, Orexin/Hypocretin receptor type 1 (Homo sapiens, UniProt O43613); experiment: Homogeneous Time Resolved Fluorescence (HTRF)-based cell-based high throughput dose response assay for antagonists of the orexin 1 receptor (OX1R; HCRTR1). [Related pubchem assays (depositor defined):AID434989, AID435008, AID463079, AID485270, AID492963, AID492964, AID492965, AID493232, AID504717, AID504718]; format: functional
T5 sequence (O43613 whole entry): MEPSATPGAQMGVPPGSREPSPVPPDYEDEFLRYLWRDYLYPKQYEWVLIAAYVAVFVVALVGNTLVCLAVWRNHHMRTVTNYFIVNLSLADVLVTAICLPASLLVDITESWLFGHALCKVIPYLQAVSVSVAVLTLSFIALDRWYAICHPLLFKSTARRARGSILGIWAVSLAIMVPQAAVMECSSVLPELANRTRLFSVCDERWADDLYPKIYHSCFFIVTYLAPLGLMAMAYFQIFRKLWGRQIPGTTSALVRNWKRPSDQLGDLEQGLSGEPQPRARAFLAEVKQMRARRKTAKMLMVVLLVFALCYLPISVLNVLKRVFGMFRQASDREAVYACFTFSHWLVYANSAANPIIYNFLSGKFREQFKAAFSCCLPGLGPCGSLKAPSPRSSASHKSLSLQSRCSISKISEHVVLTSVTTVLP

[29] = target: T6, Cytochrome P450 1A2 (Homo sapiens, UniProt P05177);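 further: PubChem cytochrome P450 panel assay, CYP1A2 panel member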
T6 sequence (P05177 whole entry): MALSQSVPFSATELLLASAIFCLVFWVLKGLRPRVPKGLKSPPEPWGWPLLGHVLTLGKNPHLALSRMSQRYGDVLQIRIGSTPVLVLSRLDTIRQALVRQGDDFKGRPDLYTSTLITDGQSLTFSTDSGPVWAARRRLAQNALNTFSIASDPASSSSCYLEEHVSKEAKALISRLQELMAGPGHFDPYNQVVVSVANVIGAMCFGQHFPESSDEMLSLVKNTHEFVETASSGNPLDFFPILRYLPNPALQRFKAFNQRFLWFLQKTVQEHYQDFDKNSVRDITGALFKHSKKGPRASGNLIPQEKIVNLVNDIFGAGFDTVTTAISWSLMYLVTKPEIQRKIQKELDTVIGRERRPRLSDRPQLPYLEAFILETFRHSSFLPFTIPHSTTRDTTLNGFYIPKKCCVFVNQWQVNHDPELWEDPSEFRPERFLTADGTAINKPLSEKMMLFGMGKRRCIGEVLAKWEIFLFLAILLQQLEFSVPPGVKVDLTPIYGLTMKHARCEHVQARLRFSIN

[30] = target: T5, Orexin/Hypocretin receptor type 1; experiment: Fluorescence-based cell-based high throughput dose response assay for antagonists of the orexin 1 receptor (OX1R; HCRTR1). [Related pubchem assays (depositor defined):AID434989, AID435008, AID463079, AID485270, AID492963, AID492964, AID492965, AID493232, AID504717, AID504718]; format: functional

T1 sequence (O95180 whole entry): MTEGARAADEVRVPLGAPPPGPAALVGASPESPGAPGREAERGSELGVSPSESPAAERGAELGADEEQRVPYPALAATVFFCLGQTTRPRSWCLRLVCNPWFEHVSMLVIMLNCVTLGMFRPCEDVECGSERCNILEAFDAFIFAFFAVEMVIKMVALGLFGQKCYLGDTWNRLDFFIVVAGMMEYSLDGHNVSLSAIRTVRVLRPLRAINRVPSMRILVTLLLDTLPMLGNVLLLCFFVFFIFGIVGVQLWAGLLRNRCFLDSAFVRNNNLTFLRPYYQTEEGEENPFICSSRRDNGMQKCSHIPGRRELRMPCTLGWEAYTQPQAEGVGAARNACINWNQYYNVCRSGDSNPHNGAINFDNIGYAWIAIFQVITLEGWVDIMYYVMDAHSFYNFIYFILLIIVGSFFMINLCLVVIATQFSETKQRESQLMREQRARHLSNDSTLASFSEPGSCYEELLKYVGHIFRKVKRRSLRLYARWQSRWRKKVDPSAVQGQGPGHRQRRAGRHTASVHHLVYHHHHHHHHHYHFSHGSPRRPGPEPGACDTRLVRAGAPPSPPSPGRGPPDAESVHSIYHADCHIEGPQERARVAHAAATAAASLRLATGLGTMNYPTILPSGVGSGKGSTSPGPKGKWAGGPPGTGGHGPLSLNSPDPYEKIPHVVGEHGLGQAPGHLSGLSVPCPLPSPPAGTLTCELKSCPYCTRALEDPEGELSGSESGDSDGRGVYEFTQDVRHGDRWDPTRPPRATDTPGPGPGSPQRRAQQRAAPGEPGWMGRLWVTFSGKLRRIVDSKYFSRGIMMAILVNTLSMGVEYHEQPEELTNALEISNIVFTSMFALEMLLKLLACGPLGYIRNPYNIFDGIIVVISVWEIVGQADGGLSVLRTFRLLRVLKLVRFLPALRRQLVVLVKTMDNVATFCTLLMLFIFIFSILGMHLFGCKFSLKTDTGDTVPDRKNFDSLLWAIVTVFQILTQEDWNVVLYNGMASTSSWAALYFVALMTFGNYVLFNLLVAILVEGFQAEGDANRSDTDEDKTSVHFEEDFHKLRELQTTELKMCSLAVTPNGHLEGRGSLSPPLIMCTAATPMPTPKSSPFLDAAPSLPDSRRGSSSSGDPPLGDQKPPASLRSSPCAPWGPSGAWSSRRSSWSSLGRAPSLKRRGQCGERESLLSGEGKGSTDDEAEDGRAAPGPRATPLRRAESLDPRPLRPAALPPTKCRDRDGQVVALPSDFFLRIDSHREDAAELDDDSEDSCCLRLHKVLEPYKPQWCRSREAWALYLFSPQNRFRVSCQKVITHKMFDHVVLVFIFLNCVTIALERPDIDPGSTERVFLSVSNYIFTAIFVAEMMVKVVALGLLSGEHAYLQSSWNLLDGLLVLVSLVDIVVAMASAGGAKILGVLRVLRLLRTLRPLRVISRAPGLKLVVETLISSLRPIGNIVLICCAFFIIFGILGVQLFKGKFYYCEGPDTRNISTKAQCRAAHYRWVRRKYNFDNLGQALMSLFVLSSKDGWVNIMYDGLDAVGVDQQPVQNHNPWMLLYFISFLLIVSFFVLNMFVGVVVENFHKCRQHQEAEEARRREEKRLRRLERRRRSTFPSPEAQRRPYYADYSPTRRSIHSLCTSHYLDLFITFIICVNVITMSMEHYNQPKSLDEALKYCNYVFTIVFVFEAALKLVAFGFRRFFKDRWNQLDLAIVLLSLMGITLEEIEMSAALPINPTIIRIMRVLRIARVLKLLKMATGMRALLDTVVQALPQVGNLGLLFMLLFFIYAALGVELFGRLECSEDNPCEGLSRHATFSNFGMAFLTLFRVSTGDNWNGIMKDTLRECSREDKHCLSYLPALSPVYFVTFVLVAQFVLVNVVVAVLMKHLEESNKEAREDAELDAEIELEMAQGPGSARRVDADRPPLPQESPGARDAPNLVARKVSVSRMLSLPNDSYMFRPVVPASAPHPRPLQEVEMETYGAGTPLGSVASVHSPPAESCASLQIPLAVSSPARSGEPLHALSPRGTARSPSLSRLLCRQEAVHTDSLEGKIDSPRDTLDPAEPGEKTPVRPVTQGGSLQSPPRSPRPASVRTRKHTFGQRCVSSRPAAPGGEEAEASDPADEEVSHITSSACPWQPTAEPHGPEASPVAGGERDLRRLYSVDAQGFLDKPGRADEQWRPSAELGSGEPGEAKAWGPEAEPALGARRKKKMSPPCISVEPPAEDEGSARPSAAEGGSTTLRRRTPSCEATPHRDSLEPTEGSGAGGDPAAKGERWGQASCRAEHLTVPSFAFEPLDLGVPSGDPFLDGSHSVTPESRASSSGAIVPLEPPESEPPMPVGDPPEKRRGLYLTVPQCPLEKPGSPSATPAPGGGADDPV
Chain of X-box-binding protein 1 (P17861 whole entry): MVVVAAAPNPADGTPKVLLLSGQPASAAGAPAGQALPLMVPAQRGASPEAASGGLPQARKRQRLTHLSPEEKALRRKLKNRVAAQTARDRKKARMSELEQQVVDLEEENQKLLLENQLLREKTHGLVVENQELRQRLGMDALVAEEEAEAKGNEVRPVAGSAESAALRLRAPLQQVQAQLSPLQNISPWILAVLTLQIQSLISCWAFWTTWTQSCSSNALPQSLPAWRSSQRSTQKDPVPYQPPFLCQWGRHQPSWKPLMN
Chain of NACHT, LRR and PYD domains-containing protein 3 (Q96P20 whole entry, the tested form may be a part): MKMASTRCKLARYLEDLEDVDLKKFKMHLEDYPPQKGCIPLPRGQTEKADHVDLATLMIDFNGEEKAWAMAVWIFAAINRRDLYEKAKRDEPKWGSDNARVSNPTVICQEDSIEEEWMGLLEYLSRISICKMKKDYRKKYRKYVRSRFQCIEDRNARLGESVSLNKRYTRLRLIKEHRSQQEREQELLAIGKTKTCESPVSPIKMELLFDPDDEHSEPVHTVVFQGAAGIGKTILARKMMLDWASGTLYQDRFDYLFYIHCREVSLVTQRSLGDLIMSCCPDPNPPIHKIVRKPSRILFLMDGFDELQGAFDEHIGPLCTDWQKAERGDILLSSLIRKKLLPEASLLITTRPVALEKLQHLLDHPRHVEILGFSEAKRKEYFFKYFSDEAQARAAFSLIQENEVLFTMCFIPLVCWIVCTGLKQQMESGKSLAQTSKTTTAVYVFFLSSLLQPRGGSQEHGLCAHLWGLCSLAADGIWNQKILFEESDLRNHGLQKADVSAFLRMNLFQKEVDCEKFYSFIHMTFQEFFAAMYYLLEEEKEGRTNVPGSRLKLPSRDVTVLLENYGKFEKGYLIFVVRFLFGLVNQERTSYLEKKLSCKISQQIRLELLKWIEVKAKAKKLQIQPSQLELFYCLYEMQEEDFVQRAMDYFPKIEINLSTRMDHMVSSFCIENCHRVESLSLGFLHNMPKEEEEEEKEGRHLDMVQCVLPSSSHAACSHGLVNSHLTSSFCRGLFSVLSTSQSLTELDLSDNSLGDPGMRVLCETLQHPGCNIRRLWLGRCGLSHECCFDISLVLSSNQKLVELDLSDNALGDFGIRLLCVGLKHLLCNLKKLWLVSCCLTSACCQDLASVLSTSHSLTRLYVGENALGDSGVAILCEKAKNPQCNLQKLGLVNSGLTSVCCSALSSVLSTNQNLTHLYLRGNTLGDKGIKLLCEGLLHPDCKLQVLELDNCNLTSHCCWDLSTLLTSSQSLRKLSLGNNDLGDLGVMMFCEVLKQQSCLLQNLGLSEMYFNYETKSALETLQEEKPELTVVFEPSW
Chain of Cyclin-dependent kinase 5/CDK5 activator 1 (Q00535 whole entry): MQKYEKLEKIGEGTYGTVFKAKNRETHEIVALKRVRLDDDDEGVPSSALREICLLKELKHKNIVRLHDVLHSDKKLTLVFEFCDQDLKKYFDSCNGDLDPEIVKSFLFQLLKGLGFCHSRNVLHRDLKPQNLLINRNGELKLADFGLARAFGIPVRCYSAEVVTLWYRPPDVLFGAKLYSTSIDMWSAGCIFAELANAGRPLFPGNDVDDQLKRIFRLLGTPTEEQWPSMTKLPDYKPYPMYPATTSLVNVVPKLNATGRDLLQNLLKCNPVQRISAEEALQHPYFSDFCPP
Chain of Cyclin-dependent kinase 5/CDK5 activator 1 (Q15078 whole entry, further chain): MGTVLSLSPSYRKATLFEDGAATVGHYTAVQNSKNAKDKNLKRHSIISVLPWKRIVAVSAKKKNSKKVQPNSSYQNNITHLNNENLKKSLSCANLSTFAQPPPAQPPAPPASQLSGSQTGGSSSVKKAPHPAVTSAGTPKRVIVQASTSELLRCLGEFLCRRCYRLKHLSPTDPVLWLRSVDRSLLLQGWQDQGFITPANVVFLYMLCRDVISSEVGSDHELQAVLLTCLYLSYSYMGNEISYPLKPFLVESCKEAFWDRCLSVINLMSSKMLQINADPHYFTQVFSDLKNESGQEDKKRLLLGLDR
Chain of Luciferin 4-monooxygenase (P08659 whole entry): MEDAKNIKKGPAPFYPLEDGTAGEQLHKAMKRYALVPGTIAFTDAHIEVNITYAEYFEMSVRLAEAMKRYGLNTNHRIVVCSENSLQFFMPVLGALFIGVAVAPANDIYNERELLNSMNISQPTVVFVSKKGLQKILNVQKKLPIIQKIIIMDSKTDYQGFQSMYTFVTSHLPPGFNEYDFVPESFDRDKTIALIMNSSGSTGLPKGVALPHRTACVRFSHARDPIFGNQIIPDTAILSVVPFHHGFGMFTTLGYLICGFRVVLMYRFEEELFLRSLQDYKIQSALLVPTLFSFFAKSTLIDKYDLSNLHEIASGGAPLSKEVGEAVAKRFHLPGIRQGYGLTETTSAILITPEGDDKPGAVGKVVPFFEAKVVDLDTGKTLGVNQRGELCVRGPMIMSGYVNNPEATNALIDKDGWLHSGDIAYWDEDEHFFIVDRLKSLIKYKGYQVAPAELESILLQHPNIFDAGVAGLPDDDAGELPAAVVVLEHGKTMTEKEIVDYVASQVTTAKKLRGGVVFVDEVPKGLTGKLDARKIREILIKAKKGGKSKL

## Cc1ccc(C(=O)O/N=C(\N)c2ccccn2)c(Cl)c1
[1]
  AC50: 6.87 µM (active)
[2]
  AC50: 3.44 µM (active)
[3]
  IC50: > 80 µM (inactive)
[4]
  IC50: 20.1 µM (not active)
[5]
  AC50: 21.4 µM (active)
[6]
  AC50: 92.9 µM (active)
[7]
  AC50: 9.61 µM (active)
[8]
  AC50: 17.3 µM (active)
[9]
  EC50: 1.2 µM (active)
[10]
  AC50: 21.8 µM (active)
[11]
  EC50: 0.782 µM (active)

## CC(C)c1ccc(NC(=O)CSc2[nH]c(-c3ccccc3F)nc3ncnc2-3)cc1
[12]
  Absolute IC50 (XBP1): 10 µM

## Cc1ccc(NC(=O)c2ccc3snnc3c2)cc1
[13]
  EC50: > 120 µM (not active)
[14]
  EC50: 0.185 µM (active)
[15]
  EC50: 6.57 µM (active)
[16]
  EC50: 1.88 µM (active)
[17]
  EC50: 2.76 µM (active)
[18]
  EC50: 0.885 µM (active)

## O=S(=O)(NCc1ccccc1)c1ccc(S(=O)(=O)N(Cc2ccccn2)C2CCCC2)cc1
[19]
  EC50: 2.35 µM (active)
[20]
  EC50: 3.02 µM (active)

## C=CCn1c(SCC(=O)Nc2sc3c(c2C#N)CCC(C)C3)nc2cc(C(=O)O)ccc2c1=O (stereo not given)
[21]
  IC50: > 80 µM (inactive)

## CC(C)NC(=O)c1c(O)c2ccccc2[nH]c1=O
[22]
  IC50: 13.1 µM (active)

## CC(C)c1ccc(-n2ncc(Cl)c(Oc3ccc(Cl)cc3)c2=O)cc1
[23]
  IC50: 5.7 µM (active)
[24]
  IC50: 1.4 µM (active)

## O=C(Nc1cccc(NC(=O)N2CCN(c3ccccc3)CC2)c1)N1CCN(c2ccccc2)CC1
[25]
  IC50: > 66.2 µM (inactive)
[26]
  IC50: 25.1 µM (inactive)
[27]
  AC50: 48.9 µM (active)
[28]
  IC50: 10.4 µM (inactive)
[29]
  AC50: 15.8 µM (inconclusive)
[30]
  IC50: 11 µM (inactive)
